Results on one molecule are retold here after patent US20200096524A1, “PLASMA AND LIVER LIPID SPECIES AS BIOMARKERS OF FATTY LIVER” (École Polytechnique Fédérale de Lausanne (EPFL), priority 2017, published 2020).

Assay [1] concerns C57BL/6J mice fed HFHS diet (fatty liver). The assay is described as follows: high-fat high-sucrose (HFHS) diet induced NAFLD mouse model, therapeutic NR supplementation, liver lipidomics. Type of assay: in vivo. The text has this: (A-C) C57BL/6J mice: (A) Schematic illustration of the three experimental groups used for validation of the NAFLD signatures; mice on CD (green), mice on HFHS diet from 7-25 weeks (grey), mice starting HFHS diet at 7 weeks and treated with nicotinamide riboside (NR) 9 weeks after the start of HFHS diet till the end of the study (for 9 weeks—therapeutic intervention, magenta). (B) Liver total TAG concentration (normalized to liver weight). […] (D-E) Human subjects: (D) PCA of 55 TAG species measured in human plasma from healthy, steatosis and NASH patients. (E) Plasma total TAG levels in human samples. (F-G) BXDs: (F) Correlation matrix showing the Pearson correlation of Atgl mRNA expression in four different metabolic tissues with the pro- and anti-NAFLD TAG signatures in plasma (left) and liver (right) for both diets. (G) Gene ontology biological processes (GO BP) associated with NAFLD TAG signatures. […] Red and blue cells represent the enriched pathways with the positively (scale bar: log 10 p-value) and negatively (scale bar: −log 10 p-value) correlated liver transcripts respectively. For B and E differences in mean TAG levels were compared using two-sample t tests. *p<0.05, **p<0.01, ***p<0.001.
(A) Levels of pro- and anti-NAFLD signatures in C57BL/6J mice fed on CD, high-fat high-sucrose-diet (HFHS) and HFHS diet supplemented with NR, 9 weeks after the initiation of HFHS diet (HFHS+NR). (B) Pearson correlation matrix of the pro- and anti-NAFLD signatures with NAFLD readouts including the NAS score (NAFLD activity score) and liver NAD+ levels. (C) Levels of plasma NAFLD signatures in human subjects with various degrees of NAFLD. (D) Pearson correlation matrix of the NAFLD signatures with NAFLD readouts in human subjects. (E) Pearson correlation of Atgl expression in subcutaneous WAT with pro- and anti-NAFLD plasma TAG signatures in BXD strains. For mice: n=6-9 per group. For human subjects: n=12, healthy; n=7, steatosis; n=14, early stage NASH; n=11, advanced stage NASH. Differences in mean TAG species were compared using two-sample t tests. *p<0.05, **p<0.01, ***p<0.001.
(A) Correlation diagram (corrgram) showing diet-independent association of lipid species with liver mass. […] Note that the CLs—CL(LOOPo), CL(LLPoP) and CL(OOOP)—are shown in the figure with an additional CL species because the two are isobaric and inseparable chromatographically. (F) Corrgram showing negative correlation of obesity and NAFLD traits with healthy CL species and positive correlation with unhealthy CL species.
It was then tested the relevance of these lipids as signatures of fatty liver in a different mouse model of NAFLD (induced by high-fat high-sucrose (HFHS) diet) and tested whether a NAFLD lowering therapeutic intervention, i.e. nicotinamide adenine dinucleotide (NAD^+) precursor, nicotinamide riboside (NR), impacts these lipid markers. As such, the liver lipids were compared of mice fed CD or HFHS diet for 18 weeks, or mice that were fed HFHS diet supplemented with NR 9 weeks after the start of HFHS diet when they had already developed NAFLD (a therapeutic intervention, HFHS+NR) (FIG. 11A). […] Of all the TAG species measured, only 53% were increased in HFHS cohort while 33% were decreased and 14% unchanged (data not shown). […] Importantly, the pro-NAFLD lipids correlated positively, whereas the anti-NAFLD lipids correlated negatively with clinical NAFLD readouts (FIG. 12B).
It was next tested whether this change in the profile of nine CL species is a general phenomenon in other dietary-induced models of hepatic steatosis and mitochondrial dysfunction and if the profile can be reverted by ameliorating hepato-steatosis via enhancing mitochondrial function. It has been previously shown that nicotinamide riboside (NR) treatment ameliorates high-fat high-sucrose (HFHS) diet induced fatty liver disease by boosting nicotinamide adenine dinucleotide (NAD+) levels and thereby enhancing mitochondrial function. […]

For assay [2], the system named is high-fat high-sucrose (HFHS) diet induced fatty liver disease. Particulars: previously shown; by boosting NAD+ levels and enhancing mitochondrial function; cited from earlier work.

For `NC(=O)c1ccc[n+]([C@@H]2O[C@H](CO)[C@@H](O)[C@H]2O)c1` [NR, nicotinamide riboside], in assay [1] (C57BL/6J mice, HFHS+NR vs HFHS, FIG. 12A), the “liver anti-NAFLD lipids (TAGs 52:5, 52:4, 54:6)” value is “increased the anti-NAFLD lipids only to a slight extent”. In assay [1] (C57BL/6J mice, HFHS+NR vs HFHS, FIG. 13D), the “liver levels of healthy CLs (CL(LLLL), MLCL(LLL))” value is “increased”. Besides, the “liver levels of unhealthy CLs (MLCL(LOO), MLCL(LLO), CL(LOOPo), CL(LLPoP), CL(LOOO), CL(OOOP))” value in assay [1] (C57BL/6J mice, HFHS+NR vs HFHS, FIG. 13E) is recorded as “decreased”. The “liver total TAG concentration” value in assay [1] (C57BL/6J mice, HFHS+NR vs HFHS, NR added 9 weeks after start of HFHS diet, 18 weeks total, FIG. 11B) is recorded as “decreased”. For the same molecule, the “liver pro-NAFLD lipids (TAGs 52:2, 54:3, 56:3, 50:2)” value in assay [1] (C57BL/6J mice, HFHS+NR vs HFHS, lowered: TAGs 54:3, 56:3, 50:2, FIG. 12A) was “significantly lowered three of the four pro-NAFLD lipids”. The “liver NAD+ levels” value in assay [1] (steatotic livers of HFHS mice, after NR treatment, FIG. 12B) is on record as “replenished”. Also, the “HFHS diet induced fatty liver disease” value in assay [2] was “ameliorates”.
